According to article PMC6321388, “Molecular Mechanism of Action of RORγt Agonists and Inverse Agonists: Insights from Molecular Dynamics Simulation” (Molecules, 2018):

Tests used:
[1] = molecular target: T1, RORγt (Homo sapiens, UniProt P51449); experiment: FRET coactivator-peptide recruitment assay with human RORγt-LBD (agonist, max. act. […]); assay type: binding
T1 construct: gene RORC; RORγt-LBD

[2] = molecular target: T1, RORγt; experiment: FRET coactivator-peptide recruitment assay with human RORγt-LBD (inverse agonist, max. -[…]); assay type: binding

T1 sequence (Q15788 2-1441): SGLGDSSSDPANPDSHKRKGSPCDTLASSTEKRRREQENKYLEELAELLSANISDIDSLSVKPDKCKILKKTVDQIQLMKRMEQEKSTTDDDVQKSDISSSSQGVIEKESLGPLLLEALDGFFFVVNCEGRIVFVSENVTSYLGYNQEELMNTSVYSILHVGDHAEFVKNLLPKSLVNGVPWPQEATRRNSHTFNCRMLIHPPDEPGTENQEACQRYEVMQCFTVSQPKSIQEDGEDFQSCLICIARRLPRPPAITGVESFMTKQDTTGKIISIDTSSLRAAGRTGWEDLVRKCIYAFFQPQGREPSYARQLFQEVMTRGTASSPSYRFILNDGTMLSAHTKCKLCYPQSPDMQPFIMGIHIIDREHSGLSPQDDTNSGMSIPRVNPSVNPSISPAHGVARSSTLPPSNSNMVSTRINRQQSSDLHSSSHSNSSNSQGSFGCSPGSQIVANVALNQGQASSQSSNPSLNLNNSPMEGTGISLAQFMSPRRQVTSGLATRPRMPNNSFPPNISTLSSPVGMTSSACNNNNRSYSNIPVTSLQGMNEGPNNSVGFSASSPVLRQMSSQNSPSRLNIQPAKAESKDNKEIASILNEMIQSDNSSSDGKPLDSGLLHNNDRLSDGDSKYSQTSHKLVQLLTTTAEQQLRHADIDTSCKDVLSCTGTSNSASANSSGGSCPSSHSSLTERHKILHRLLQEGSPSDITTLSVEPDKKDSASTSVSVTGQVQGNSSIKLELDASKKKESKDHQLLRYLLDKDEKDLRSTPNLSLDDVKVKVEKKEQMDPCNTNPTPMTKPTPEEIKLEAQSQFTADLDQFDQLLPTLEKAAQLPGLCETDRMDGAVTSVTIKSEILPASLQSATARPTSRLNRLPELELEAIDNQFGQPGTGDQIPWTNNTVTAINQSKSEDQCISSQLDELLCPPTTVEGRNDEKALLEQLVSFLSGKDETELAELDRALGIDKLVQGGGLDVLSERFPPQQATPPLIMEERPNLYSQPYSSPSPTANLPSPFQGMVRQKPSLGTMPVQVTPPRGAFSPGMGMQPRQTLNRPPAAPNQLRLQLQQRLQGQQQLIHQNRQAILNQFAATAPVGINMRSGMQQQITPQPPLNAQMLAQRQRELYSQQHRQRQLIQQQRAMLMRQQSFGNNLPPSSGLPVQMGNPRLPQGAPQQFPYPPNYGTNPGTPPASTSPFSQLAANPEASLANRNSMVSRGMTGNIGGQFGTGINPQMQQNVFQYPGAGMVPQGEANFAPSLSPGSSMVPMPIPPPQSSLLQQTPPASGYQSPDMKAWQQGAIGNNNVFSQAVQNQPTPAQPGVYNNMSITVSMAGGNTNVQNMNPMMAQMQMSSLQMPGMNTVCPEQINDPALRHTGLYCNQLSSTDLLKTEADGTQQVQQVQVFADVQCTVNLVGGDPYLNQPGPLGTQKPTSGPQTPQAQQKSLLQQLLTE
T1 sequence (P51449 265-507): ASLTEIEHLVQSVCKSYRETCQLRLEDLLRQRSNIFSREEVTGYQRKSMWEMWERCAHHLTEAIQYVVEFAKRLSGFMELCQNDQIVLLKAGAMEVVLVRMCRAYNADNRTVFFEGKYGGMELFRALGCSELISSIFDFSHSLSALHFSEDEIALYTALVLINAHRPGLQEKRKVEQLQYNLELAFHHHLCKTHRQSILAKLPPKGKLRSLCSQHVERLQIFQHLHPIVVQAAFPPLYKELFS

| SMILES | EC50 [1] | IC50 [2] |
| --- | --- | --- |
| CC(=O)N1CCN(c2ccc3c(c2)CCCN3S(=O)(=O)c2ccccc2)CC1 [compound 1, agonist 1] | 3.7 µM |  |
| CC(=O)N1CCN(c2ccc(N(C3CCC3)S(=O)(=O)Cc3ccccc3)cc2)CC1 [GT] |  | 0.053 µM |
